This is an account of results in US20260193294A1, “POLYPEPTIDE INHIBITOR, AND PREPARATION METHOD THEREFOR AND USE THEREOF” (SHANGHAI HANSOH BIOMEDICAL CO., LTD., priority 2022, published 2026).

One series in a line: in vitro. It is filed as in vitro ADME. To be noted: plasma. On the procedure: (§1) To study the stability of the compounds of the examples in the plasmas of mice, rats, dogs and humans.
(§2) Preparation of plasma: Animal or human whole blood was collected, then put into a test tube containing an anticoagulant, and centrifuged at 3500 rpm for 10 min, and the upper pale yellow plasma was collected; • working solution of 10 μM test compound: a stock solution was prepared with DMSO, and the working solution was prepared with 100 mM phosphate buffer; • working solution of 10 μM positive control: • procaine: 2.36 mg of procaine was weighed and diluted into a 10 mM stock solution with 1 mL of DMSO. 10 μL of the 10 mM stock solution was pipetted into 1 mL of 100 mM phosphate buffer, such that the final concentration was 100 μM; and • enalapril: 4.93 mg of enalapril was weighed and diluted into a 10 mM stock solution with 1 mL of DMSO; and 10 μL of the 10 mM stock solution was pipetted into 1 mL of 100 mM phosphate buffer, such that the final concentration was 100 μM.
(§3) In a 96-well plate, 285 μL of plasma and 15 μL of 10 μM compound (test compound, and positive control) were successively added and incubated at 37° C.
(§4) 40 μL was taken at 0, 15, 30, 60, 90, and 120 min (sampling points could be fine-tuned), respectively, and 160 μL of an acetonitrile stop solution containing an internal standard was added.
(§5) After centrifugation (3500 rpm, 10 min), 50 μL of the supernatant was taken, diluted by adding 50 μL of DDH2O, and then injected for LC-MS/MS.
(§6) • Instrument: Shimadzu LC-20 AD • Chromatographic column: Phenomenex Gemiu® C18 (50*4.6 mm, 5 μm particle size) • Mobile phase: A: acetonitrile, B: 0.1% formic acid solution • Elution gradient: […]: 5% A→95% A, 2.0-2.1 min: […] • Flow rate: 0.8 mL/min • Run time: 5.0 min • Injection volume: 5 μL
(§7) • Instrument: API4000 liquid chromatography mass spectrometer, AB, US • Ion source: electrospray ionization source (ESI) • Drying gas: N2, temperature 500° C. • Electrospray voltage: 5500V • Detection mode: positive ion detection • Scan mode: multi reaction monitoring (MRM) mode • Scan time: 0.1 s
(§8) All calculations were carried out using Microsoft Excel. The peak area ratio was determined by an extracted ion chromatogram.
(§9) The residual percentage of the compound at each time point was calculated by the following equation: Residual percentage at t hours (%)=peak area ratio at t hours/peak area ratio at 0 hour×100%, in which the peak area ratio at t hr was the peak area ratio of the […] at t min; and • the slope value k was determined by linear regression on the natural logarithm of the curve of the residual percentage of the parent drug versus the incubation time.
(§10) In vitro half-life (in vitro t1/2) was determined by the slope value: […]

Another series is described as follows: in vivo. Conditions: male, SD, rat, iv, 1 mg/kg.
In series [1] the test system is IL23-induced rat otitis model. Nature of the series: In vivo pharmacodynamics in IL23-induced rat otitis model (ear thickening). Details: species or system SD rats. To be noted: 10 mg/kg, gavage. The source says: To evaluate the in vivo efficacy of the compounds in an IL23-induced rat otitis model.
SD rats, 6-8 weeks old, male, purchased from Jiangsu GemPharmatech Co., Ltd.
• a. […]

The nature of series [2]: Stability in plasma (human). It is filed as in vitro ADME. To be noted: human, plasma. As for the experimental part: as §1, §2, §3, §4, §5, §6, §7, §8, §9, §10
Series [3] is described as follows: Pharmacokinetic determination in rats (IV). To be noted: male, SD, rat, plasma, 1 mg/kg.
Description: SD rats were used as test animals to study the pharmacokinetic behavior of the compounds of the examples in the rats (plasma) after oral or IV administration.
Preparation of intravenous drug: PBS
The compounds of the examples were weighed and dissolved in this solution, vortexed, ultrasonicated for 5 min, and filtered through a 0.22 μm filter membrane to obtain colorless clear solutions with a concentration of 0.2 mg/mL.
3 SD rats/group, male were fasted overnight and then respectively administered IV at a dose of 1 mg/kg and a volume of 5 mL/kg.
• Before administration and at 0.083 h, 0.25 h, 0.5 h, 1.0 h, 2.0 h, 4.0 h, 6.0 h, 8.0 h, and 24.0 h after administration (IV), 0.2 mL of blood was collected from the jugular vein, placed in an EDTA-2K test tube, and centrifuged at 6000 rpm for 6 min at 4° C. to separate plasma, which was stored at −20° C.; and the rats were fed 4 h after administration.
1) Acetonitrile (200 μL) was added to the plasma sample (50 μL) for precipitation, and the mixture was mixed and centrifuged at 4500 rpm for 15 min.
(§11) 2) The treated supernatant solution was taken and subjected to LC/MS/MS to analyze the concentrations of the test compounds. LC/MS/MS analysis instrument: AB Sciex Triple Quad 6500+.
• Liquid phase conditions: Shimadzu LC-30AD pump • Chromatographic column: HALO 90A PFP 2.7 μm 2.1×30 mm, mobile phase: liquid A: 5% acetonitrile aqueous solution (0.1% formic acid), and liquid B: an aqueous solution of 95% acetonitrile (0.1% formic acid) • Flow rate: 0.6 mL/min • Elution time: 0-2.0 min, the eluent was as follows:
(§12) The main pharmacokinetic parameters were calculated using WinNonlin 8.1.
The test system of series [4] is activation of STAT3 phosphorylation by hIL23 in DB cells. The series can be described thus: Blocking the activation of STAT3 phosphorylation by hIL23 in DB cells (p-STAT3 ELISA). It is filed as cell-based, Human. Conditions: DB cells stimulated by rhIL-23 0.5 nM, half an hour; read-out: pStat3 IC50. As for the experimental part:
To determine the inhibitory activity of the compounds of the present disclosure on the activation of STAT3 phosphorylation by hIL23 in DB cells
The compounds produced above were added to DB (ATCC Cat #CRL-2289) cells to inhibit the signal transduction of rhIL-23 cytokine. The screening of compounds was carried out by a multi-well plate (suitable for ELISA assay). Generally, in the presence of some of the above compounds of the present disclosure, 6.25×10^6 cells/ml of DB cells were stimulated by rhIL-23 (0.5 nM, R&D SYSTEMS) in RPMI medium (Invitrogen) containing 10% of FBS, and after half an hour, lysis was carried out on ice using 50 μL of 2×lysis buffer (CST). The content of p-STAT3 in the lysate was determined by PathScan Phospho-Stat3 (Tyr705) Sandwich ELISA Kit (CST Cat #7300C), so as to calculate the activity of the compounds of the present disclosure in blocking rhIL23 signal transduction in DB cells.
The inhibition rate was calculated as follows: […]
By using log (inhibitor) vs. response—Variable slope (four parameters) in Graphpad, the data of ELISA experiment results were subjected to non-linear regression fitting to fit a curve and obtain the IC50 value.
A general note: ELISA stands for enzyme-linked immunosorbent assay.

The nature of series [5]: Pharmacokinetic determination in beagle dogs (IV). To be noted: male, dog, plasma, 0.2 mg/kg.
Description: Beagle dogs were used as test animals to study the pharmacokinetic behavior of the compounds of the examples in the rats (plasma) after IV administration.
3 beagle dogs/group, male, from Yizheng Anlimao Biotechnology Co., Ltd.
The compounds of the examples were weighed and dissolved in this solution, vortexed, ultrasonicated for 5 min, and filtered through a 0.22 μm filter membrane to obtain colorless clear solutions with a concentration of 0.1 mg/mL.
3 beagle dogs/group, male were fasted overnight and then respectively administered IV at a dose of 0.2 mg/kg and a volume of 2 mL/kg.
1) Acetonitrile (200 μL) was added to the plasma sample (50 L) for precipitation, and the mixture was mixed and centrifuged at 4500 rpm for 15 min.
as §11
Premier Peptide CSH C18 130A 1.7 μm 2.1*100 mm Column, mobile phase: liquid A: 5% acetonitrile aqueous solution (0.1% formic acid), and liquid B: an aqueous solution of 95% acetonitrile (0.1% formic acid) • Flow rate: 0.6 mL/min • Elution time: 0-2.0 min, the eluent was as follows:
as §12

As usually defined, the half-life is how long it takes for the measured level to halve. Read a high half-life as slow loss. Broadly, the amount remaining is the share of the starting amount still present when the sample was taken. Low values mean a greater loss, high ones greater stability. Usually AUC(0-inf) stands for the area under the concentration-time curve extrapolated to infinity. Higher therefore signals high exposure. For orientation: AUC(0-t) means the area under the concentration-time curve up to a stated or last time point. A high value points to more exposure. As usually defined, the MRT is the average time that molecules of a dose stay in the body. The clearance is a measure of how efficiently the substance is removed, as volume per time. Read a low clearance as inefficient removal. One may read the IC50 as the concentration at which inhibition is half-maximal.

Positions of bridges follow the written chain, without caps; N, C: chain ends. Non-standard residues stand in square brackets, D forms with d. Residues, ends and D or L forms follow the SMILES beside them. *: point of attachment. X1 = CN(CCNC(=O)CCOCCOCC[N+](C)(C)CCNC(=O)COCCOCCNC(=O)COCCOCCNC(=O)CC[C@H](NC(=O)CCCCCCCCCCCCCCC(=O)O)C(=O)O)*; Trp(7-Me) = Cc1cccc2c(C[C@H](N)C(=O)O)c[nH]c12; 2Nal = N[C@@H](Cc1ccc2ccccc2c1)C(=O)O; AEF = NCCOc1ccc(C[C@H](N)C(=O)O)cc1; 3Pal = N[C@@H](Cc1cccnc1)C(=O)O; Pen = CC(C)(S)[C@H](N)C(=O)O; Thp = NC1(C(=O)O)CCOCC1; Sar = CNCC(=O)O

In “in vitro” (dog), `CC(=O)NCCCC[C@@H]1NC(=O)[C@H](Cc2c[nH]c3c(C)cccc23)NC(=O)[C@H]([C@@H](C)O)NC(=O)[C@H](CC(N)=O)NC(=O)[C@@H](NC(C)=O)C(C)(C)SSC(C)(C)[C@@H](C(=O)N[C@@H](Cc2ccc(OCCN)cc2)C(=O)N[C@@H](Cc2ccc3ccccc3c2)C(=O)NC2(C(=O)N[C@@H](CCC(=O)O)C(=O)N[C@@H](CC(N)=O)C(=O)N[C@@H](Cc3cccnc3)C(=O)N(C)CCNC(=O)CCOCCOCC[N+](C)(C)CCNC(=O)COCCOCCNC(=O)COCCOCCNC(=O)CC[C@H](NC(=O)CCCCCCCCCCCCCCC(=O)O)C(=O)O)CCOCC2)NC1=O` [Example 1] (Ac-[Pen]NT[Trp(7-Me)]K(Ac)[Pen][AEF][2Nal][Thp]EN[3Pal]-X1; disulfide 1-6) had a half-life at 0.5 μM of 148 h and a fraction remaining at 4 h, 0.5 µM of 99.7%. In the series “in vitro” (mouse), this compound had a half-life at 0.5 μM of 32 h and an amount remaining at 4 h, 0.5 µM of 93.8%. Moreover, in the series “in vitro” (rat), the half-life at 0.5 μM is 75.7 h and the fraction remaining at 4 h, 0.5 µM was 98.7%. The half-life in the series “in vivo” was 4.9 h. The “Inhibition rate on Day 4 (ear thickening)” value in series [1] (QD) is given as 51.22%. Also, in series [2], the half-life at 0.5 μM is 64.6 h and the fraction remaining at 4 h, 0.5 µM worked out at 94.3%. Besides, in series [3], the AUC(0-inf) is 46700 ng·h/mL, the AUC(0-t) amounted to 45400 ng·h/mL, the C0 came to 10300 ng/mL and the MRT came out at 6.1 h. This compound also returned a clearance in series [3] of 0.35 mL/min/kg. Also, the IC50 in series [4] was 0.025 nM.

On to `CC(=O)NCCCC[C@@H]1NC(=O)[C@H](Cc2c[nH]c3c(C)cccc23)NC(=O)[C@H]([C@@H](C)O)NC(=O)[C@H](CC(N)=O)NC(=O)[C@@H](NC(C)=O)C(C)(C)SSC(C)(C)[C@@H](C(=O)N[C@@H](Cc2ccc(OCCN)cc2)C(=O)N[C@@H](Cc2ccc3ccccc3c2)C(=O)NC2(C(=O)N[C@@H](CCC(=O)O)C(=O)N[C@@H](CC(N)=O)C(=O)N[C@@H](Cc3cccnc3)C(=O)N(C)CC(N)=O)CCOCC2)NC1=O` [PN-235, reference compound] (Ac-[Pen]NT[Trp(7-Me)]K(Ac)[Pen][AEF][2Nal][Thp]EN[3Pal][Sar]-NH2; disulfide 1-6 (inferred); N-terminus and C-terminus assumed), for which, in series [1] (BID), the “Inhibition rate on Day 4 (ear thickening)” value was 55.35%. In series [5], this compound showed an AUC(0-inf) of 2030 ng·h/mL, an exposure AUC(0-t) of 2020 ng·h/mL, a C0 of 1250 ng/mL and a mean residence time (MRT) of 3.1 h. In series [5], the clearance came out at 1.68 mL/min/kg and the half-life was 4.1 h. For the same compound, in series [3], the AUC(0-inf) was 2670 ng·h/mL, the exposure AUC(0-t) was found to be 2620 ng·h/mL, the C0 worked out at 4290 ng/mL and the MRT was found to be 0.9 h. Besides, in series [3], the clearance was found to be 6.2 mL/min/kg and the half-life was 0.7 h.
